Consider twelve compounds from patent US20240002425A1, “NOVEL AMINOALKYL GLUCOSAMINIDE 4-PHOSPHATE DERIVATIVE” (DAIICHI SANKYO COMPANY, LIMITED, priority 2020, published 2024).

Where two headings read alike, the source gives them in different places.

This assay concerns the target human TLR4 (Homo sapiens, UniProt O00206+Q9Y6Y9). The experiment in a line: Human TLR4 activating effect (HEK-Blue Human TLR4 Cells, SEAP reporter). It counts as cell-based. As to conditions: 24 hours, SEAP Protein concentration. How it is done: The human TLR4 activating effect was studied using the compounds described in Examples 1 to 17 and monophosphoryl lipid A as Comparative Example A.
Triethanolamine was dissolved at 0.5% (v/v) in injectable distilled water to prepare an aqueous triethanolamine solution. 1 mg of each test drug was dissolved in 0.98 mL of the aqueous triethanolamine solution, and pH of the solution was then adjusted to 7.2 to 7.4 by the addition of 20 μL of 1 M HCl to prepare a 1 mg/mL solution. A dilution series of the test drug was prepared using a medium [DMEM (Nacalai Tesque, Inc.), 10% FBS (Sigma-Aldrich Co. LLC), 50 U/mL penicillin-50 μg/mL streptomycin (Thermo Fisher Scientific Inc.), 1×HEK-Blue Selection (InvivoGen), and 100 μg/mL Normocin (InvivoGen)]. 2×10^5 cells/mL HEK-Blue™ Human TLR4 Cells (InvivoGen) were inoculated to each well of a 96-well microplate for tissue culture (Iwaki), then treated with the test drug, and cultured at 37° C. for 24 hours under 5% CO2. The cells thus cultured were centrifuged at 400×g at 4° C. for 3 minutes. Recombinant SEAP Protein (InvivoGen) was used for a calibration curve. After addition of 180 μL of QUANTI-Blue (InvivoGen) to each well of 96 Well TC-Treated Microplates (Corning, Inc.), 20 μL each of the cell culture supernatant and a standard diluting solution was added to each well, and the plate was left standing at 37° C. for 4 hours. After reaction, absorbance (wavelength: 655 nm) was measured using a microplate reader (PerkinElmer, Inc., EnSpire), and a SEAP Protein concentration was calculated from the calibration curve and used as an index for TLR4 agonist activity. A drug concentration that induced reaction corresponding to 50% of the maximum reaction was calculated as EC50 (ng/mL) from a linear expression using two drug concentrations between which the drug concentration that induced reaction corresponding to 50% of the maximum reaction in each experiment was positioned, and measured values thereof.

Where [1] appears, read: read-out: EC50 (ng/ml) (converted).

Sequence of human TLR4 (O00206 24-839): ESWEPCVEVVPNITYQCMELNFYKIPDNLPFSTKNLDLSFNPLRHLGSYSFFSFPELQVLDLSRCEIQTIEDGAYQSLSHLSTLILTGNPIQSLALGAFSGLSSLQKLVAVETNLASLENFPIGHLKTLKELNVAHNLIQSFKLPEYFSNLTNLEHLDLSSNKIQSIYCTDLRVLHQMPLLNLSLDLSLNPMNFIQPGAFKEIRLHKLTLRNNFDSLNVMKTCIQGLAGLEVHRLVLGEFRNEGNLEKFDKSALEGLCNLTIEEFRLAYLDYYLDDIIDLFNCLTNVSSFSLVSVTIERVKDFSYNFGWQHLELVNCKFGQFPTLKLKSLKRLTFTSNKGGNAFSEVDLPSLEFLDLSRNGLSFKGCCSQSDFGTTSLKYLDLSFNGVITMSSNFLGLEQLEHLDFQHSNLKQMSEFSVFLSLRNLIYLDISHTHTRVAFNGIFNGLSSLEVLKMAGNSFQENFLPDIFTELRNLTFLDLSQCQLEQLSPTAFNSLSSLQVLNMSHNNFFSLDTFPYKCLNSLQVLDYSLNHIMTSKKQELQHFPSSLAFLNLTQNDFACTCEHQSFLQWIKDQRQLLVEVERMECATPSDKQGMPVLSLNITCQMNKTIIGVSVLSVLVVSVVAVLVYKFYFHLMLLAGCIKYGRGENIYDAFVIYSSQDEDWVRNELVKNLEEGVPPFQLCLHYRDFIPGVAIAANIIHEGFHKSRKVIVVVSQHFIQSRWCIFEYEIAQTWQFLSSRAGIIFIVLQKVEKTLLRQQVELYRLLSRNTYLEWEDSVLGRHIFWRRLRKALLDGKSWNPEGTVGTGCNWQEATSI
Sequence of human TLR4 (Q9Y6Y9 17-160 limits assumed): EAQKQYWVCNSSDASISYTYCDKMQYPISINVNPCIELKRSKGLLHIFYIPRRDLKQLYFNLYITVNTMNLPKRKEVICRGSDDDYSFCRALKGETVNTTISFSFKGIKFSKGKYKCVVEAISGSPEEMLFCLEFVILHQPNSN

For `CCCCCCCCCCC[C@H](CC(=O)NC1C(OC[C@@H](CC(=O)O)NC(=O)C[C@@H](CCCCCCCCCCC)OC(=O)CCCCCCCCC)OC(COC2(C(=O)O)CC(OC3(C(=O)O)CC(O)C(O)C([C@H](O)CO)O3)C(O)C([C@H](O)CO)O2)C(OP(=O)(O)O)C1OC(=O)C[C@@H](CCCCCCCCCCC)OC(=O)CCCCCCCCC)OC(=O)CCCCCCCCC` (stereo partly drawn) [Example 3(3d), Ammonium (3R)-3-{[(3R)-3-(decanoyloxy)tetradecanoyl]amino}-4-{[3-deoxy-α-D-manno-oct-2-ulopyranonosyl-(2-+4)-3-deoxy-α-D-manno-oct-2-ulopyranonosyl-(2-+6)-3-O-[(3R)-3-(decanoyloxy)tetradecanoyl]-2-{[(3R)-3-(decanoyloxy)tetradecanoyl]amino}-2-deoxy-4-O-phosphono-β-D-glucopyranosyl]oxy}butanoate], under setting [1], the EC50 is 0.422 nM.
The same measure, in the same setting: under `CCCCCCCCCCC[C@H](CC(=O)NC1C(CC[C@H](NC(=O)C[C@@H](CCCCCCCCCCC)OC(=O)CCCCCCCCC)C(=O)O)OC(CO)C(OP(=O)(O)O)C1OC(=O)C[C@@H](CCCCCCCCCCC)OC(=O)CCCCCCCCC)OC(=O)CCCCCCCCC` (stereo partly drawn) [Example 13(130), Ammonium 5,9-anhydro-7-O-[(3R)-3-(decanoyloxy)tetradecanoyl]-2,6-bis{[(3R)-3-(decanoyloxy)tetradecanoyl]amino}-2,3,4,6-tetradeoxy-8-O-phosphono-D-erythro-L-galacto-decanoate] stands 1.61 nM; under `CCCCCCCCCCC[C@H](CC(=O)NC1C(CC[C@@H](CC(=O)O)NC(=O)C[C@@H](CCCCCCCCCCC)OC(=O)CCCCCCCCC)OC(CO)C(OP(=O)(O)O)C1OC(=O)C[C@@H](CCCCCCCCCCC)OC(=O)CCCCCCCCC)OC(=O)CCCCCCCCC` (stereo partly drawn) [Example 10(10r), Ammonium 6,10-anhydro-8-O-[(3R)-3-(decanoyloxy)tetradecanoyl]-3,7-bis{[(3R)-3-(decanoyloxy)tetradecanoyl]amino}-2,3,4,5,7-pentadeoxy-9-O-phosphono-D-erythro-L-galacto-undecanoate], 0.667 nM; under `CCCCCCCCCCC[C@H](CC(=O)N[C@H]1[C@H](OC[C@H](NC(=O)C[C@@H](CCCCCCCCCCC)OC(=O)CCCCCCCCC)C(=O)O)O[C@H](CO[C@]2(C(=O)O)C[C@@H](O)[C@@H](O)[C@@H]([C@H](O)CO)O2)[C@@H](OP(=O)(O)O)[C@@H]1OC(=O)C[C@@H](CCCCCCCCCCC)OC(=O)CCCCCCCCC)OC(=O)CCCCCCCCC` [Example 4(4d), Ammonium (2S)-2-{[(3R)-3-(decanoyloxy)tetradecanoyl]amino}-3-({3-O-[(3R)-3-(decanoyloxy)tetradecanoyl]-2-{[(3R)-3-(decanoyloxy)tetradecanoyl]amino}-2-deoxy-6-O-(3-deoxy-α-D-manno-oct-2-ulopyranonosyl)-4-O-phosphono-β-D-glucopyranosyl}oxy)propanoate], 0.328 nM.
Take `CCCCCCCCCCC[C@H](CC(=O)N[C@H]1[C@H](OC[C@H](NC(=O)C[C@@H](CCCCCCCCCCC)OC(=O)CCCCCCCCC)C(=O)O)O[C@H](CO[C@@H]2O[C@H](CO)[C@@H](O)[C@H](O)[C@H]2NC(C)=O)[C@@H](OP(=O)(O)O)[C@@H]1OC(=O)C[C@@H](CCCCCCCCCCC)OC(=O)CCCCCCCCC)OC(=O)CCCCCCCCC` [Example 7(7c), Ammonium (2S)-3-{[6-O-(2-acetamido-2-deoxy-β-D-glucopyranosyl)-3-O-[(3R)-3-(decanoyloxy)tetradecanoyl]-2-{[(3R)-3-(decanoyloxy)tetradecanoyl]amino}-2-deoxy-4-O-phosphono-β-D-glucopyranosyl]oxy}-2-{[(3R)-3-(decanoyloxy)tetradecanoyl]amino}propanoate]: under setting [1], the EC50 was 0.396 nM.
On to “monophosphoryl lipid A [Comparative Example A, reference compound]”, for which the “EC50” value was over 0.01 µg/mL.
Take `CCCCCCCCCCC[C@H](CC(=O)N[C@@H](CO[C@@H]1O[C@H](CO)[C@@H](OP(=O)(O)O)[C@H](OC(=O)C[C@@H](CCCCCCCCCCC)OC(=O)CCCCCCCCC)[C@H]1NC(=O)C[C@@H](CCCCCCCCCCC)OC(=O)CCCCCCCCC)CC(=O)O)OC(=O)CCCCCCCCC` [Example 1(1k), Bisammonium (3R)-3-{[(3R)-3-(decanoyloxy)tetradecanoyl]amino}-4-({3-O-[(3R)-3-(decanoyloxy)tetradecanoyl]-2-{[(3R)-3-(decanoyloxy)tetradecanoyl]amino}-2-deoxy-4-O-phosphono-β-D-glucopyranosyl}oxy)butanoate]: the EC50 under setting [1] is 0.612 nM.
In the case of `CCCCCCCCCCC[C@H](CC(=O)NC1C(CC[C@@H](CC(=O)O)NC(=O)C[C@@H](CCCCCCCCCCC)OC(=O)CCCCCCCCC)OC(COC2(C(=O)O)CC(OC3(C(=O)O)CC(O)C(O)C([C@H](O)CO)O3)C(O)C([C@H](O)CO)O2)C(OP(=O)(O)O)C1OC(=O)C[C@@H](CCCCCCCCCCC)OC(=O)CCCCCCCCC)OC(=O)CCCCCCCCC` (stereo partly drawn) [Example 12(12d), Ammonium 3-deoxy-α-D-manno-oct-2-ulopyranonosyl-(2-+4)-3-deoxy-α-D-manno-oct-2-ulopyranonosyl-(2-+11)-6,10-anhydro-8-O-[(3R)-3-(decanoyloxy)tetradecanoyl]-3,7-bis{[(3R)-3-(decanoyloxy)tetradecanoyl]amino}-2,3,4,5,7-pentadeoxy-9-O-phosphono-D-erythro-L-galacto-undecanoate], the EC50 under setting [1] is 0.67 nM.
Still for that read-out and setting: the value for `CCCCCCCCCCC[C@H](CC(=O)N[C@H]1[C@H](OC[C@H](NC(=O)C[C@@H](CCCCCCCCCCC)OC(=O)CCCCCCCCC)C(=O)O)O[C@H](CO[C@@H]2O[C@H](COP(=O)(O)O)[C@@H](O)[C@H](O)[C@H]2NC(C)=O)[C@@H](OP(=O)(O)O)[C@@H]1OC(=O)C[C@@H](CCCCCCCCCCC)OC(=O)CCCCCCCCC)OC(=O)CCCCCCCCC` [Example 9(9e), Ammonium (2S)-3-({6-O-[2-acetamido-2-deoxy-6-O-(hydroxyphosphinato)-β-D-glucopyranosyl]-3-O-[(3R)-3-(decanoyloxy)tetradecanoyl]-2-{[(3R)-3-(decanoyloxy)tetradecanoyl]amino}-2-deoxy-4-O-phosphono-β-D-glucopyranosyl}oxy)-2-{[(3R)-3-(decanoyloxy)tetradecanoyl]amino}propanoate] was 0.288 nM.
For the compound `CCCCCCCCCCC[C@H](CC(=O)NC1C(OC[C@H](NC(=O)C[C@@H](CCCCCCCCCCC)OC(=O)CCCCCCCCC)C(=O)O)OC(COC2(C(=O)O)CC(OC3(C(=O)O)CC(O)C(O)C([C@H](O)CO)O3)C(O)C([C@H](O)CO)O2)C(OP(=O)(O)O)C1OC(=O)C[C@@H](CCCCCCCCCCC)OC(=O)CCCCCCCCC)OC(=O)CCCCCCCCC` (stereo partly drawn) [Example 5(5d), Ammonium (2S)-2-{[(3R)-3-(decanoyloxy)tetradecanoyl]amino}-3-{[3-deoxy-α-D-manno-oct-2-ulopyranonosyl-(2-+4)-3-deoxy-α-D-manno-oct-2-ulopyranonosyl-(2-+6)-3-O-[(3R)-3-(decanoyloxy)tetradecanoyl]-2-{[(3R)-3-(decanoyloxy)tetradecanoyl]amino}-2-deoxy-4-O-phosphono-β-D-glucopyranosyl]oxy}propanoate], the EC50 under setting [1] was 0.187 nM.
Turning to `CCCCCCCCCCC[C@H](CC(=O)NC1C(CC[C@H](NC(=O)C[C@@H](CCCCCCCCCCC)OCCCCCCCCCC)C(=O)O)OC(CO)C(OP(=O)(O)O)C1OC(=O)C[C@@H](CCCCCCCCCCC)OCCCCCCCCCC)OCCCCCCCCCC` (stereo partly drawn) [Example 17(17h), Ammonium 5,9-anhydro-7-O-[(3R)-3-(decyloxy)tetradecanoyl]-2,6-bis{[(3R)-3-(decyloxy)tetradecanoyl]amino}-2,3,4,6-tetradeoxy-8-O-phosphono-D-erythro-L-galacto-decanoate], the EC50 under setting [1] is 0.969 nM.
In the case of `CCCCCCCCCCC[C@H](CC(=O)NC1C(CC[C@H](NC(=O)C[C@@H](CCCCCCCCCCC)OC(=O)CCCCCCCCC)C(=O)O)OC(COC2(C(=O)O)CC(OC3(C(=O)O)CC(O)C(O)C([C@H](O)CO)O3)C(O)C([C@H](O)CO)O2)C(OP(=O)(O)O)C1OC(=O)C[C@@H](CCCCCCCCCCC)OC(=O)CCCCCCCCC)OC(=O)CCCCCCCCC` (stereo partly drawn) [Example 15(15d), Ammonium 3-deoxy-α-D-manno-oct-2-ulopyranonosyl-(2-+4)-3-deoxy-α-D-manno-oct-2-ulopyranonosyl-(2-+10)-5,9-anhydro-7-O-[(3R)-3-(decanoyloxy)tetradecanoyl]-2,6-bis{[(3R)-3-(decanoyloxy)tetradecanoyl]amino}-2,3,4,6-tetradeoxy-8-O-phosphono-D-erythro-L-galacto-decanoate], the EC50 under setting [1] is 0.4 nM.
